Source: EP0043274A2, “Antithrombotic treatment” (priority 1980, dated 1982)
Where “and” joins values, the source holds several entries; their conditions need not be identical. Identical values can stand only once. Like-named read-outs stand apart in the source and are kept apart here.

Columns and labels:
human plasma [1] = assay type: biochemical
human plasma [2] = assay type: biochemical; remark: listed apart in the source
F VII = target: T1, F VII (Homo sapiens, UniProt P08709); experiment: Coagulation factor assay (Biggs): Factor VII; assay type: biochemical; settings: for F VII (%): U.S.P. grade, control 73
T1 construct: from tissue; host or cells: human plasma
T1 sequence (P08709 61-466): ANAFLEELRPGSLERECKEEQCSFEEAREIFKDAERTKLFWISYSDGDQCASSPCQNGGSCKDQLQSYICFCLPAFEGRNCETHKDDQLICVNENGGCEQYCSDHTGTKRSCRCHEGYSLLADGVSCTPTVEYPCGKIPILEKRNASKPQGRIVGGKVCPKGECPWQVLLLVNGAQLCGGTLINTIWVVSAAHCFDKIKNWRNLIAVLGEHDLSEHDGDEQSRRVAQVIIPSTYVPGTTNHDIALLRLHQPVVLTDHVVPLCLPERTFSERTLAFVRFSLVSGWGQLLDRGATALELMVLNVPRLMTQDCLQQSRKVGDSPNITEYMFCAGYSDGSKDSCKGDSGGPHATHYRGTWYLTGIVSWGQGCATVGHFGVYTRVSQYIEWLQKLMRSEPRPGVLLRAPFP
Experimental: (§1) The effect of U.S.P. grade sodium bisulfite on blood coagulation factors is evaluated by standard procedures (Biggs) and the results are shown in Table III below.
(§2) References for PT, PTT, and assays of all the coagulation factors can be found in a standard textbook, entitled "Human Blood Coagulation, Haemostasis and Thrombosis", edited by Rosemary Biggs, published by Blackwell Scientific Publications, Oxford, England (2nd edition), pages 670-705, 1976.

F IX = target: T2, F IX (Homo sapiens, UniProt P00740); experiment: Coagulation factor assay (Biggs): Factor IX; assay type: biochemical; settings: for F IX (%): U.S.P. grade, control 66
T2 construct: from tissue; host or cells: human plasma
T2 sequence (P00740 47-461): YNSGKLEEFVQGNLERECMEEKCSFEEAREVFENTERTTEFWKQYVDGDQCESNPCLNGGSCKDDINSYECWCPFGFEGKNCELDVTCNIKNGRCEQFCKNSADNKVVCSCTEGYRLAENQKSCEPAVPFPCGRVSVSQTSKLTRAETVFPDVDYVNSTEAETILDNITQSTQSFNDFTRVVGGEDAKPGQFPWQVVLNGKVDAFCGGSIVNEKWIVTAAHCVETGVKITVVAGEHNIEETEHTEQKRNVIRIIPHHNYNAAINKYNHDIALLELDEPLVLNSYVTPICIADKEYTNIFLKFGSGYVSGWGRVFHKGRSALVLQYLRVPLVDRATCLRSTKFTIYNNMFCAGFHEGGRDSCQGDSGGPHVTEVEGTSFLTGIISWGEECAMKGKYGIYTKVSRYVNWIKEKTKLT
Experimental: as §1, §2

F X = target: T3, F X (Homo sapiens, UniProt P00742); experiment: Coagulation factor assay (Biggs): Factor X; assay type: biochemical; settings: for F X (%): U.S.P. grade, control 78
T3 construct: from tissue; host or cells: human plasma
T3 sequence (P00742 41-488): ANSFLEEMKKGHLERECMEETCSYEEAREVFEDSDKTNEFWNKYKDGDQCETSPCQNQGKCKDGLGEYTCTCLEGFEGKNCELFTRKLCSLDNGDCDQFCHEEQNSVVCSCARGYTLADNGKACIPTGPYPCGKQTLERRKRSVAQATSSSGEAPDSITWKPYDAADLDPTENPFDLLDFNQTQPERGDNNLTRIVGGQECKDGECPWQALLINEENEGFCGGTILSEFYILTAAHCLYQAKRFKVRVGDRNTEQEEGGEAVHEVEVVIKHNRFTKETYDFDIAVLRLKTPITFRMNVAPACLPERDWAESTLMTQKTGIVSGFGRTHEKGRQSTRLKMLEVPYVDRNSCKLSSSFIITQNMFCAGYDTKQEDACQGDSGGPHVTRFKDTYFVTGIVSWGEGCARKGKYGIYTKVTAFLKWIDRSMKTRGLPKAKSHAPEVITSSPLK
Experimental: as §1, §2

F XI = target: T4, F XI (Homo sapiens, UniProt P03951); experiment: Coagulation factor assay (Biggs): Factor XI; assay type: biochemical; settings: for F XI (%): U.S.P. grade, control 117
T4 construct: from tissue; host or cells: human plasma
T4 sequence (P03951 19-625): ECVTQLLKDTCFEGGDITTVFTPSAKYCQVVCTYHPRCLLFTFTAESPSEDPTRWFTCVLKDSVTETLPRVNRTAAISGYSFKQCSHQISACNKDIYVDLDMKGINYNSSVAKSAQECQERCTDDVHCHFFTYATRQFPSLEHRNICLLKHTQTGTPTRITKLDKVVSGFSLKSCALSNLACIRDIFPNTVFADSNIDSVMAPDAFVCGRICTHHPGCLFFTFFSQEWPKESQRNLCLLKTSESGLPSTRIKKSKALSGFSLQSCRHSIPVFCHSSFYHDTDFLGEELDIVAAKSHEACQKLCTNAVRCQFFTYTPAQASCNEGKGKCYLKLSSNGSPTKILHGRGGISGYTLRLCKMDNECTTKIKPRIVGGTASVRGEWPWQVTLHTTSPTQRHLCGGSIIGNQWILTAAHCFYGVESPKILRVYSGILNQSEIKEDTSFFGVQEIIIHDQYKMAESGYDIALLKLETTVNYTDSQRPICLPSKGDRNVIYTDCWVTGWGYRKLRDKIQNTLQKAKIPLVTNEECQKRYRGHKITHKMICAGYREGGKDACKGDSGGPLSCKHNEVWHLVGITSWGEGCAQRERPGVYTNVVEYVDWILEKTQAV
Experimental: as §1, §2

F XII = target: T5, F XII (Homo sapiens, UniProt P00748); experiment: Coagulation factor assay (Biggs): Factor XII; assay type: biochemical; settings: for F XII (%): U.S.P. grade, control 86
T5 construct: from tissue; host or cells: human plasma
T5 sequence (P00748 20-615): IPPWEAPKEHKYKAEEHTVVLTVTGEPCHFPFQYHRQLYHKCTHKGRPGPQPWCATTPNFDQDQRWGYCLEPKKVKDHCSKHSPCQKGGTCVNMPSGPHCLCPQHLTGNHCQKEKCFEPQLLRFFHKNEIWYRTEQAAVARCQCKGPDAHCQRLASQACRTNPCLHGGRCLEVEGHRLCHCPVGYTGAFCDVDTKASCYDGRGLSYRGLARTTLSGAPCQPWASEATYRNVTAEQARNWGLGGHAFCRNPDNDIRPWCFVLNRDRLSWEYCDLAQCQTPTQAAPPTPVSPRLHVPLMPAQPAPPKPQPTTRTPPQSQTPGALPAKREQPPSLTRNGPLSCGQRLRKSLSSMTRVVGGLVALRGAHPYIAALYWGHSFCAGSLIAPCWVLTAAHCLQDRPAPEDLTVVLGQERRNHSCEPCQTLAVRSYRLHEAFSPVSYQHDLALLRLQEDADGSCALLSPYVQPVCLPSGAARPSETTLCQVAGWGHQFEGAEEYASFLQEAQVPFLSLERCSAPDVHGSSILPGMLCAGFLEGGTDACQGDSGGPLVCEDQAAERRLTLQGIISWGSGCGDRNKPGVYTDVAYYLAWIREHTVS
Experimental: as §1, §2

rabbit plasma = experiment: Blood coagulation tests (PT, PTT, coagulation factors) in vitro; assay type: biochemical
Description: The alkali metalbisulfites, sodium and potassium, and ammonium bisulfite are found to prolong PT and PTT in a dose-related fashion.
The Solution I is found to prolong PT and PTT in a dose related fashion. […] The agent is active in inhibiting various coagulation factors, including factors VII, IX, X, XI, and XII.

[3] = test system: thrombus formation in the jugular vein; experiment: I 125 fibrinogen technique, damaged jugular vein (venous thrombosis), continuous infusion; assay type: in vivo, rabbits
[4] = continuous infusion for five hours

## Sodium bisulfite
Human plasma [1]
  PT: 22.42 s
  PT(seconds) Exp. 1 A: 25.5 s and 22.1 s
  PT(seconds) Exp. 2 A: 23.2 s
Human plasma [1]; 0.01 mg/ml, U.S.P. grade, control 34.67
  PT: 33.37 s
Human plasma [1]; 0.05 mg/ml, U.S.P. grade, control 34.67
  PT: 34.00 s
Human plasma [1]; 0.1 mg/ml, U.S.P. grade, control 34.67
  PT: 34.85 s
Human plasma [1]; 0.5 mg/ml, U.S.P. grade, control 34.67
  PT: 42.73 s
Human plasma [1]; 1.0 mg/ml, U.S.P. grade, control 34.67
  PT: 85.33 s
Human plasma [1]; 5.0 mg/ml, U.S.P. grade, control 34.67
  PT: >150 s
Human plasma [1]; coded agents 0.5mg/ml, […], control 12.92
  PT: 23.06 s
Human plasma [1]; in vitro, 0.5 mg/ml
  PT (effect in words): significantly prolong
Human plasma [2]
  PTT(seconds) Exp. 1 A: 128.2 s
Human plasma [2]; 0.01 mg/ml, U.S.P. grade, control 12.20
  PTT: 12.33 s
Human plasma [2]; 0.05 mg/ml, U.S.P. grade, control 12.20
  PTT: 12.43 s
Human plasma [2]; 0.1 mg/ml, U.S.P. grade, control 12.20
  PTT: 12.85 s
Human plasma [2]; 0.5 mg/ml, U.S.P. grade, control 12.20
  PTT: 15.43 s
Human plasma [2]; 0.5 mg/ml, two different days, control 42.6 / 42.10
  PTT: 120.35 s
Human plasma [2]; 1.0 mg/ml, U.S.P. grade, control 12.20
  PTT: 22.63 s
Human plasma [2]; 5.0 mg/ml, U.S.P. grade, control 12.20
  PTT: >150 s
Human plasma [2]; Active Agent 0.5/ml, test sequences A and B, control 50.5 (A), 44.5 (B)
  PTT(seconds) Exp. 2 A: 162.6 s and 121.9 s
Human plasma [2]; coded agents 0.5mg/ml, […], control 43.38
  PTT: 114.80 s
Human plasma [2]; in vitro, 0.5 mg/ml
  PTT (effect in words): significantly prolong
F VII; 0.01 mg/ml
  F VII (%): 67%
F VII; 0.05 mg/ml
  F VII (%): 57%
F VII; 0.1 mg/ml
  F VII (%): 51%
F VII; 0.5 mg per ml
  effect on Factor VII: significant inhibitory effect
F VII; 0.5 mg/ml
  F VII (%): 23%
F VII; 1.0 mg/ml
  F VII (%): 8%
F VII; 5.0 mg/ml
  F VII (%): 1%
F IX; 0.01 mg/ml
  F IX (%): 60%
F IX; 0.05 mg/ml
  F IX (%): 52%
F IX; 0.1 mg/ml
  F IX (%): 56%
F IX; 0.5 mg per ml
  effect on Factor IX: significant inhibitory effect
F IX; 0.5 mg/ml
  F IX (%): 4%
F IX; 1.0 mg/ml
  F IX (%): 3%
F IX; 5.0 mg/ml
  F IX (%): <1%
F X; 0.01 mg/ml
  F X (%): 73%
F X; 0.05 mg/ml
  F X (%): 68%
F X; 0.1 mg/ml
  F X (%): 66%
F X; 0.5 mg per ml
  effect on Factor X: significant inhibitory effect
F X; 0.5 mg/ml
  F X (%): 31%
F X; 1.0 mg/ml
  F X (%): 11%
F X; 5.0 mg/ml
  F X (%): 3%
F XI; 0.01 mg/ml
  F XI (%): 98%
F XI; 0.05 mg/ml
  F XI (%): 81%
F XI; 0.1 mg/ml
  F XI (%): 58%
F XI; 0.5 mg per ml
  effect on Factor XI: significant inhibitory effect
F XI; 0.5 mg/ml
  F XI (%): 27%
F XI; 1.0 mg/ml
  F XI (%): 4%
F XI; 5.0 mg/ml
  F XI (%): <1%
F XII; 0.01 mg/ml
  F XII (%): 94%
F XII; 0.05 mg/ml
  F XII (%): 87%
F XII; 0.1 mg/ml
  F XII (%): 79%
F XII; 0.5 mg per ml
  effect on Factor XII: significant inhibitory effect
F XII; 0.5 mg/ml
  F XII (%): 17%
F XII; 1.0 mg/ml
  F XII (%): 3%
F XII; 5.0 mg/ml
  F XII (%): <1%
Rabbit plasma; rabbit plasma in vitro, 0.5 mg/ml
  PT and PTT (effect in words): significantly prolong
Rabbit plasma; rabbit plasma, compared with human plasma
  blood coagulation factors: not as sensitive
[3]; continuous infusion
  mortality of infused rabbits: died
[3]; [4]
  radioactivity (I 125 fibrinogen) in damaged jugular vein of saline control rabbit relative to treated rabbit: seven times
  thrombus formation in the jugular vein (conclusion in words): definite positive effect of decreasing thrombus formation
